Laboratory results from patent US10858360B2, “Tricyclic gyrase inhibitors” (priority 2011, dated 2020).
Values after ≈ are worked out from the molar mass of the structure shown. Like-named read-outs stand apart in the source and are kept apart here.

What was measured:
E. coli ATCC 25922 = assay: MIC, E. coli ATCC 25922; format: cell-based; settings: for MIC: Escherichia coli, ATCC25922, E. coli
S. aureus ATCC 13709 = assay: MIC, S. aureus ATCC 13709 (Alamar Blue broth microdilution); format: cell-based; settings: for MIC: Staphylococcus aureus, ATCC13709, S. aureus
[1] = E. coli, Alamar Blue read after overnight incubation at 35° C.
[2] = S. aureus, Alamar Blue read after overnight incubation at 35° C.
[3] = Alamar Blue read after overnight incubation at 35° C.

SMILES | MIC Ec (E. coli ATCC 25922; [1]) [mg/L] | MIC Sa (S. aureus ATCC 13709; [2]) [mg/L] | MIC (E. coli ATCC 25922; [3]) [mg/L] | MIC (S. aureus ATCC 13709; [3]) [mg/L] | further results
CNc1cc(F)cc2c1[nH]c1nc(Oc3cnc(C)nc3)nc(N3CC(N4CC(N)C4)C3)c12 [4.158] | 4 (≈ 8.9 µM) | ≤0.5 |  |  | 
CNc1cc(F)cc2c1[nH]c1nc(Sc3cnc4ccc[n+]([O-])c4c3)nc(N3CC4C(N)C4C3)c12 (centres unmarked) [1.50] |  |  | ≤ 0.5 | ≤ 0.5 | 
NC1C2CN(c3nc(Sc4cnc5ccc[n+]([O-])c5c4)nc4[nH]c5c(Cl)cccc5c34)CC12 (centres unmarked) [1.3] |  |  | > 64 | 32 (≈ 67.2 µM) | 
CNc1cccc2c1[nH]c1nc(Sc3cncc(S(N)(=O)=O)c3)nc(N3CC4C(N)C4C3)c12 (centres unmarked) [1.41] |  |  | 8 (≈ 16.6 µM) | 4 (≈ 8.29 µM) | 
CNc1ccc(C)c2c1[nH]c1nc(Sc3cnc4cccnc4c3)nc(N3CC4C(N)C4C3)c12 (centres unmarked) [1.58] |  |  | 8 (≈ 17.1 µM) | ≤ 0.5 | 
CNc1cccc2c1[nH]c1nc(Oc3cnc(C)nc3)nc(N3CCC4(CC4N)C3)c12 (centres unmarked) [3.42] |  |  | 2 (≈ 4.8 µM) | ≤ 0.5 | 
CNc1cc(F)cc2c1[nH]c1nc(Oc3cnc(C)nc3)nc(N3CC4CC3CC4N)c12 (centres unmarked) [4.128] | 4 (≈ 9.21 µM) | ≤0.5 |  |  | 
CNc1cc(F)cc2c1[nH]c1nc(Sc3cnc4cccnc4c3)nc(N3CC4C(N)C4C3)c12 (centres unmarked) [1.51] |  |  | ≤ 0.5 | ≤ 0.5 | 
CNc1cccc2c1[nH]c1nc(Sc3cnc4ccc[n+]([O-])c4c3)nc(N3CC(CN)C3)c12 [1.20] |  |  | 16 (≈ 34.9 µM) | 4 (≈ 8.72 µM) | 
CNc1cc(F)c(F)c2c1[nH]c1nc(Oc3cnc(C)nc3)nc(N3CC(N)C3)c12 [5.06] | ≤0.5 | ≤0.5 |  |  | 
CNc1ncnc2c1[nH]c1nc(Oc3cncc(F)c3)nc(N3CCC4(CC4N)C3)c12 (centres unmarked) [7.07] |  |  | > 64 | 16 (≈ 38 µM) | 
COc1cccc2c1[nH]c1nc(Oc3cncnc3)nc(N3CCC(NC(C)=O)C3)c12 (centres unmarked) [2.11] | >64 | 4 (≈ 9.54 µM) |  |  | 
CNc1cc(F)cc2c1[nH]c1nc(Oc3cnc(C)nc3)nc(N3CC(C)C(CN)C3)c12 (centres unmarked) [4.087] | 1 (≈ 2.29 µM) | ≤0.5 |  |  | 
CNc1cc(F)cc2c1[nH]c1nc(Oc3cnc(SC)nc3)nc(N3CCC4(CC4N)C3)c12 (centres unmarked) [4.195] |  |  | 1 (≈ 2.14 µM) | ≤ 0.5 | 
CNc1cc(F)cc2c1[nH]c1nc(Oc3cnc4[nH]cnc4c3)nc(N3CC4C(N)C4C3)c12 (centres unmarked) [4.311] |  |  | > 16 | 4 (≈ 8.98 µM) | 
CNc1cccc2c1[nH]c1nc(Oc3cncc(F)c3)nc(N3CC4C(N)C4C3)c12 (centres unmarked) [3.33] |  |  | 1 (≈ 2.47 µM) | ≤ 0.5 | 

SMILES | MIC Ec (E. coli ATCC 25922; [1]) [mg/L] | MIC Sa (S. aureus ATCC 13709; [2]) [mg/L] | MIC (E. coli ATCC 25922; [3]) [mg/L] | MIC (S. aureus ATCC 13709; [3]) [mg/L] | further results
CNc1cc(F)cc2c1[nH]c1nc(Oc3cnc(C)nc3)nc(N3CC[C@@H](N)C3)c12 [4.070] |  |  | 1 (≈ 2.45 µM) | ≤ 0.5 | 
CNc1cccc2c1[nH]c1nc(Oc3cnc4cccnc4c3)nc(N3CC(N)C4(CC4)C3)c12 (centres unmarked) [3.52] |  |  | ≤ 0.5 | ≤ 0.5 | 
CNc1cc(F)cc2c1[nH]c1nc(Oc3cnc(C4CC4)nc3)nc(N3CC4C[C@@H](N)C4C3)c12 (some centres unmarked) [4.254] |  |  | ≤ 0.5 | ≤ 0.5 | 
CNc1cc(F)cc2c1[nH]c1nc(Oc3cnc(C)nc3)nc(-c3cncnc3)c12 [4.449] |  |  | > 16 | ≤ 0.5 | 
CNc1cc(F)cc2c1[nH]c1nc(Oc3cncc(Cl)c3)nc(N3CC4(CCC4N)C3)c12 (centres unmarked) [4.275] | ≤0.5 | ≤0.5 |  |  | 
CNc1cccc2c1[nH]c1nc(Sc3cnc4ccc[n+]([O-])c4c3)nc(N3CCC[C@@H](N)C3)c12 [1.34] |  |  | 4 (≈ 8.46 µM) | 1 (≈ 2.12 µM) | 
CNc1cc(F)cc2c1[nH]c1nc(Oc3cnc(C)nc3)nc(N3CCCC(N)C3)c12 (centres unmarked) [4.077] | ≤0.5 | ≤0.5 |  |  | 
CNc1cc(F)cc2c1[nH]c1nc(Oc3cnc(C)nc3)nc(N3CC4CCNC4(C)C3)c12 (centres unmarked) [4.116] | ≤0.5 | ≤0.5 |  |  | 
CNc1cc(F)cc2c1[nH]c1nc(Oc3cnc(C)nc3)nc(N3CC(NC(=O)C(C)NC(=O)C(C)N)C4(CC4)C3)c12 (centres unmarked) [4.145] | 8 (≈ 13.9 µM) | 1 (≈ 1.73 µM) |  |  | 
CNc1cc(F)cc2c1[nH]c1nc(Oc3cncnc3)nc(N3CC4CC4(CN)C3)c12 (centres unmarked) [4.027] |  |  | 1 (≈ 2.38 µM) | ≤ 0.5 | 
CNc1cc(C)cc2c1[nH]c1nc(Oc3cnc(C)nc3)nc(N3CC4C(N)C4C3)c12 (centres unmarked) [6.26] |  |  |  |  | MIC Ec (E. coli ATCC 25922): 1 mg/L (≈ 2.4 µM); MIC Sa (S. aureus ATCC 13709): ≤0.5 mg/L
CNc1cc(F)cc2c1[nH]c1nc(Oc3cnc(C)nc3)nc(N3CC4CNC(C4)C3)c12 (centres unmarked) [4.072] |  |  | 1 (≈ 2.3 µM) | ≤ 0.5 | 
CNc1cc(F)cc2c1[nH]c1nc(Oc3ccc4nc5n(c(=O)c4c3)CCC5)nc(N3CC4(CCC4N)C3)c12 (centres unmarked) [4.377] | 16 (≈ 30.4 µM) | 4 (≈ 7.6 µM) |  |  | 
CNc1cc(F)cc2c1[nH]c1nc(Oc3cc(O)c4c(C)cc(=O)oc4c3)nc(N3CC4CC(N)C4C3)c12 (centres unmarked) [4.382] | 16 (≈ 31 µM) | 1 (≈ 1.94 µM) |  |  | 
CCOC1CN(c2nc(Oc3cnc(C)nc3)nc3[nH]c4c(NC)cc(F)cc4c23)CC1N (mixture of isomers) [4.147] | 1 | ≤0.5 |  |  | 
